Assay results from patent US20250197428A1, “INHIBITORS OF KIF18A AND USES THEREOF” (ACCENT THERAPEUTICS, INC., priority 2022, published 2025).

Legend:
KIF18A = KIF18A (Homo sapiens (Human), UniProt Q8NI77); assay: KIF18A Biochemical Assay (ATPase, ADP-Glo)
OVCAR-3 cells = assay: In vitro anti-proliferative activity assay in cancer cell line OVCAR-3 (CellTiter-Glo, 4- or 7-day); type: cell-based; details: Homo sapiens, OVCAR-3, 168 h, 7-day assay; read-out: OVCAR-3 cellular antiproliferation assay IC50

Sequence of KIF18A (Q8NI77 1-367): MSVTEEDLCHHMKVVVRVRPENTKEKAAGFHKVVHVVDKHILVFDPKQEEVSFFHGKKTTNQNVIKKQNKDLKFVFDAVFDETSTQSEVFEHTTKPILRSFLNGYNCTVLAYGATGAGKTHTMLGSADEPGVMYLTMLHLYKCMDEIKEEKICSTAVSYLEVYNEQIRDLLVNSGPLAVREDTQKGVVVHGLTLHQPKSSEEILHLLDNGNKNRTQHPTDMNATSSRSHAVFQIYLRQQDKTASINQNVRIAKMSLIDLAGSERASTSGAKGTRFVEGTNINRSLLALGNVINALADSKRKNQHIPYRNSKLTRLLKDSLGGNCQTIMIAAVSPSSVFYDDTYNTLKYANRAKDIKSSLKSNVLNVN
Sequence of KIF18A (P02550 whole entry partner): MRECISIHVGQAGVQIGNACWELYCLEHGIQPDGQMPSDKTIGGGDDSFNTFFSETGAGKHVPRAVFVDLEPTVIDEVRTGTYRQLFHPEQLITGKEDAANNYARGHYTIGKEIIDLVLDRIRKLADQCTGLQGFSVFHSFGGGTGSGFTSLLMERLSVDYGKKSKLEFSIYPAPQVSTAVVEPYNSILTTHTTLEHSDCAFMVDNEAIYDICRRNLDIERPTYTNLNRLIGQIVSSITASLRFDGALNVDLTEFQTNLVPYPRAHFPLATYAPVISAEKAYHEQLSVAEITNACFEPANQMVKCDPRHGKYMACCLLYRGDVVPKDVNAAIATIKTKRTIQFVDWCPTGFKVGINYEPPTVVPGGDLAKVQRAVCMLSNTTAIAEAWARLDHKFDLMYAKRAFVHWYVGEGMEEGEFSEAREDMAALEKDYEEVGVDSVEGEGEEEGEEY
Sequence of KIF18A (P02554 whole entry partner): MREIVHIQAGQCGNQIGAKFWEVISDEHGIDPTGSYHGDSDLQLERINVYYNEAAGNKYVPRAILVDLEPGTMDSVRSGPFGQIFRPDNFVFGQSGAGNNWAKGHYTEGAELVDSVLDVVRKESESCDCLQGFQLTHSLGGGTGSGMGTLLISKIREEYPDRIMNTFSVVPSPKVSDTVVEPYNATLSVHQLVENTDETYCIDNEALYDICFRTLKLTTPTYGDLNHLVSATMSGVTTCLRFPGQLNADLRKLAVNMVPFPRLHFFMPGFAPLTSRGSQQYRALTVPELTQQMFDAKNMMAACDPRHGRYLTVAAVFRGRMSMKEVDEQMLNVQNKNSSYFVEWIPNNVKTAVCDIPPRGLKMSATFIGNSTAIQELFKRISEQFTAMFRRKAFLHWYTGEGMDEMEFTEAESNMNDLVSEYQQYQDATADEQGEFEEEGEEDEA

Compound	IC50 (KIF18A) [nM]	IC50 (OVCAR-3 cells) [nM]
Cc1cc(NC(=O)c2ccc(S(=O)(=O)NCCO)cc2N2CC[C@]3(C(F)F)C[C@@H]3C2)nc(N2CCC(F)(F)CC2)n1 [Example 77]	100 to 500	100 to 500
Cc1cc(NC(=O)c2ccc(NS(=O)(=O)CCO)cc2N2CC[C@]3(C(C)(F)F)C[C@@H]3C2)nc(N2CCC(F)(F)CC2)n1 [Example 79]	100 to 500	> 1000
Cc1cc(NC(=O)c2ccc(NS(=O)(=O)CCO)cc2N2CC[C@@]3(C(C)(F)F)C[C@H]3C2)nc(N2CCC(F)(F)CC2)n1 [Example 80]	100 to 500	100 to 500
CO[C@]12CCN(c3cc(NS(=O)(=O)CCO)ccc3C(=O)Nc3cc(C)nc(N4CCC(F)(F)CC4)n3)C[C@H]1C2 [Example 81]	< 100	500 to 1000
CO[C@@]12CCN(c3cc(NS(=O)(=O)CCO)ccc3C(=O)Nc3cc(C)nc(N4CCC(F)(F)CC4)n3)C[C@@H]1C2 [Example 82]	< 100	500 to 1000
O=C(Nc1cccc(N2CCC(F)(F)CC2)n1)c1c(F)cc(NS(=O)(=O)CCO)cc1N1CC[C@]2(C(F)F)C[C@@H]2C1 [Example 83]	< 100	500 to 1000
C[Si]1(C)CCN(c2cc(NS(=O)(=O)CCO)ccc2C(=O)Nc2cccc(C3(C(F)(F)F)N=N3)c2)CC1 [Example 87]	< 100	100 to 500
CC(C)(CO)Nc1ccc(C(=O)Nc2cccc(S(=O)(=O)C3CCCC3)c2)c(N2CC[Si](C)(C)CC2)n1 [Example 97]	> 1000	> 1000
C[Si]1(C)CCN(c2cc(S(=O)(=O)NCCO)ccc2C(=O)Nc2cccc(OCCC(F)(F)F)n2)CC1 [Example 99]	< 100	< 100
CNCCS(=O)(=O)Nc1ccc(C(=O)Nc2cccc(N3CCC(F)(F)CC3)n2)c(N2CC[Si](C)(C)CC2)c1 [Example 101]	< 100	100 to 500
Cc1cc(NC(=O)c2cc(F)c(NS(=O)(=O)CCO)cc2N2CC[Si](C)(C)CC2)nc(N2CCC(F)(F)CC2)n1 [Example 103]	< 100	100 to 500
Cc1cc(NC(=O)c2ncc(NS(=O)(=O)CCO)nc2N2CC[Si](C)(C)CC2)nc(N2CCC(F)(F)CC2)n1 [Example 105]	> 1000	> 1000
Cc1cc(NC(=O)c2ccc(NS(=O)(=O)C(C)CO)cc2N2CC[Si](C)(C)CC2)nc(N2CC(F)(F)C2)c1 (centres unmarked) [Example 114]	< 100	< 100
Cc1cc(NC(=O)c2c(F)cc(NS(=O)(=O)CCO)c(F)c2N2CC[Si](C)(C)CC2)nc(N2CCC(F)(F)CC2)n1 [Example 116]	500 to 1000	> 1000
C[Si]1(C)CCN(c2cc(NS(=O)(=O)CCO)ccc2C(=O)Nc2cccc(OC[C@H](O)C(F)(F)F)n2)CC1 [Example 122]	< 100	< 100
C[Si]1(C)CCN(c2cc(NS(=O)(=O)CCO)cc(F)c2C(=O)Nc2cccc(OC[C@@H](O)C(F)(F)F)n2)CC1 [Example 123]	< 100	500 to 1000
C[Si]1(C)CCN(c2cc(NS(=O)(=O)CCO)cc(F)c2C(=O)Nc2cccc(OC[C@H](O)C(F)(F)F)n2)CC1 [Example 124]	< 100	100 to 500
C[Si]1(C)CCN(c2cc(NS(=O)(=O)NCCO)ccc2C(=O)Nc2cccc(OC[C@@H](O)C(F)(F)F)n2)CC1 [Example 125]	< 100	100 to 500
C[Si]1(C)CCN(c2cc(NS(=O)(=O)NCCO)ccc2C(=O)Nc2cccc(OC[C@H](O)C(F)(F)F)n2)CC1 [Example 126]	< 100	100 to 500
C[Si]1(C)CCN(c2cc(NS(C)(=O)=O)ccc2C(=O)Nc2cccc(OC[C@H](O)C(F)(F)F)n2)CC1 [Example 128]	< 100	100 to 500
C[Si]1(C)CCN(c2cc(S(=O)(=O)CCO)ccc2C(=O)Nc2cccc(OC[C@@H](O)C(F)(F)F)n2)CC1 [Example 129]	< 100	100 to 500
C[Si]1(C)CCN(c2cc(S(=O)(=O)CCO)ccc2C(=O)Nc2cccc(OC[C@H](O)C(F)(F)F)n2)CC1 [Example 130]	< 100	100 to 500
